IC50 data for eleven molecules are collected here from patent US6410553B1, “Benzosulfones and related compositions and methods” (Ortho-McNeil Pharmaceutical, Inc., priority 2000, dated 2002).

SMILES strings stand for the structures.

In the test the target is T1, calcium channel (3H-nitrendipine binding, rabbit heart membranes) (Oryctolagus cuniculus, UniProt P15381).
T1 construct: from tissue; host or cells: rabbit heart (crude membrane pellet)
T1 sequence (P15381 whole entry, other chains not shown): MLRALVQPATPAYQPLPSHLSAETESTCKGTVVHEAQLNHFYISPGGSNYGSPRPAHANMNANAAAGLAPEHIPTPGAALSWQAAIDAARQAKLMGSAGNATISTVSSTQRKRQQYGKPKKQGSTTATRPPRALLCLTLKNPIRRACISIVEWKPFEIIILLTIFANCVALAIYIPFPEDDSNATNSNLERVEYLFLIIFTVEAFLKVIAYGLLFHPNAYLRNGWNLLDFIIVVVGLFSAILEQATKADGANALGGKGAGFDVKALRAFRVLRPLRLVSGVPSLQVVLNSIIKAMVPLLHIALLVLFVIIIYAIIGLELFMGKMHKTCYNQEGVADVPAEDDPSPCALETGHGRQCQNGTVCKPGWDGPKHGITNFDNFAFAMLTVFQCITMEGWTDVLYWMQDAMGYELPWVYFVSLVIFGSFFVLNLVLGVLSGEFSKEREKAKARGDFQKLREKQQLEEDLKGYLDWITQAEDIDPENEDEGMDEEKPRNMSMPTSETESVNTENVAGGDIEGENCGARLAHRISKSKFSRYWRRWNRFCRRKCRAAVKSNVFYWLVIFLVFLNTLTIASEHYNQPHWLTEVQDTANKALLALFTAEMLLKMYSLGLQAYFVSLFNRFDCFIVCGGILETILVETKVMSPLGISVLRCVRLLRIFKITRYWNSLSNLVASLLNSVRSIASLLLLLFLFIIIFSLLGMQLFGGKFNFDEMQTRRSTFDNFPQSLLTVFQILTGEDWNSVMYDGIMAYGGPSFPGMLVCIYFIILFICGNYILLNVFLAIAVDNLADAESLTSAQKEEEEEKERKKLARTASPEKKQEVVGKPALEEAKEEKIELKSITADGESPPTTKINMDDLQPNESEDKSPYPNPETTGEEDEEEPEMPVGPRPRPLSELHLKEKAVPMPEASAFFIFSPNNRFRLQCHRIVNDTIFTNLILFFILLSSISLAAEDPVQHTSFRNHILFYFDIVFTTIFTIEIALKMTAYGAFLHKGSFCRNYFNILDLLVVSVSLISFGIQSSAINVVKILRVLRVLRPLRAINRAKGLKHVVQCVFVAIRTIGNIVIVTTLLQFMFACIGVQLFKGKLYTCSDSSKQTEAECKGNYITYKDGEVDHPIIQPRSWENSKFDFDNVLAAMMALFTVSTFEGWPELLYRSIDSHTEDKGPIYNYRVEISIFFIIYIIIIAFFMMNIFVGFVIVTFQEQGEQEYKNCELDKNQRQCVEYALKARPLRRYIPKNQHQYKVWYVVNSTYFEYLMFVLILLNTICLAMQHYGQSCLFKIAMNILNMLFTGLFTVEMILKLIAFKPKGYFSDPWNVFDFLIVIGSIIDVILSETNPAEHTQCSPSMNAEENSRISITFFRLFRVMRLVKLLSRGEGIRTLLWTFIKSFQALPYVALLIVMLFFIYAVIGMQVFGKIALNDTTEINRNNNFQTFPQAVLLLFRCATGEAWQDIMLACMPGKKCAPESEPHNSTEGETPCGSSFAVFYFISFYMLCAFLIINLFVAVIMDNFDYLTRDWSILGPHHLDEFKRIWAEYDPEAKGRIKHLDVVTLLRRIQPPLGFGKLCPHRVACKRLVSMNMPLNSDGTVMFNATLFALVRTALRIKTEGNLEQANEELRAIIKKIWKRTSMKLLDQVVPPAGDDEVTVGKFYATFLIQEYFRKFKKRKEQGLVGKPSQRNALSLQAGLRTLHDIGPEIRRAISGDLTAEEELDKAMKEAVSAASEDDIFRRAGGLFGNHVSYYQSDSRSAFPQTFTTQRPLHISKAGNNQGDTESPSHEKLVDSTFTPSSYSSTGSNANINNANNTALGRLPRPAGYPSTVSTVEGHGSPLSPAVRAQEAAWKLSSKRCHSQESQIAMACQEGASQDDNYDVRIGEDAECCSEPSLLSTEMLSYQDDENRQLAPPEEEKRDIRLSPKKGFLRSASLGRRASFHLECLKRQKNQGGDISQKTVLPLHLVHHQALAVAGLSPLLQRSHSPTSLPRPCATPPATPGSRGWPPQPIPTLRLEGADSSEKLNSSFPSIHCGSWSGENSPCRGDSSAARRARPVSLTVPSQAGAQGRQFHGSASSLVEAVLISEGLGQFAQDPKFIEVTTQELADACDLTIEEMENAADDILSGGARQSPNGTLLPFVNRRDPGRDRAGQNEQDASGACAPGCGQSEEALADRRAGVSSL
T1 sequence (P13806 27-960 partner limits assumed, other chains not shown): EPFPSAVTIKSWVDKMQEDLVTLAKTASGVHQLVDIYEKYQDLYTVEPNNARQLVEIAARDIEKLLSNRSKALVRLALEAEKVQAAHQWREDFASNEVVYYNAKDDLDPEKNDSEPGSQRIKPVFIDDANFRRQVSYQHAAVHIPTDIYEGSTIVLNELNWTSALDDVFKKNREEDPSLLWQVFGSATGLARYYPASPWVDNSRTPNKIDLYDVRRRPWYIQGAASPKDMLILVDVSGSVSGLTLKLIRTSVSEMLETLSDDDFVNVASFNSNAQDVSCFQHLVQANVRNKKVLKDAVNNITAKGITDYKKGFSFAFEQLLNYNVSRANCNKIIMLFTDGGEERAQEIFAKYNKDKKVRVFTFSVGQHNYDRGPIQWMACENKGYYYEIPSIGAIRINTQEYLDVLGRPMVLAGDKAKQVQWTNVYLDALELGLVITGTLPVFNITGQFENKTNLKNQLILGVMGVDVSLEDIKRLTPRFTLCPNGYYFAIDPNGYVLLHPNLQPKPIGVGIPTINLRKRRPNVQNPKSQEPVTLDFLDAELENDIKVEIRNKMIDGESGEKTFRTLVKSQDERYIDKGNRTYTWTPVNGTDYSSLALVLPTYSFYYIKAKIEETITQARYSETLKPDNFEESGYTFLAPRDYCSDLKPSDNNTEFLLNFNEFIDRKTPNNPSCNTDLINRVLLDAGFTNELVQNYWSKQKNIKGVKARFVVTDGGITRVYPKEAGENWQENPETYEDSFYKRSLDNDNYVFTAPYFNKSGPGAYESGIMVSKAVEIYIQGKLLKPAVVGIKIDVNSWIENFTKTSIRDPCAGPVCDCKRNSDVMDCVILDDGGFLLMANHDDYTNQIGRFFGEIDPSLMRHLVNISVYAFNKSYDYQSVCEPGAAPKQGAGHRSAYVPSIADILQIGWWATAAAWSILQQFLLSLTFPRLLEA
T1 sequence (P13806 961-1106 partner limits assumed, other chains not shown): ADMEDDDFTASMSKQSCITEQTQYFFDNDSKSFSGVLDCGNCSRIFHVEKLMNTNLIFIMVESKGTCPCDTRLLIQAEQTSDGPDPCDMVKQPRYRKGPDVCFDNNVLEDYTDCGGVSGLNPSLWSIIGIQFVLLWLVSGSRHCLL
The test can be described thus: Assay for Inhibition of Nitrendipine Binding. As to conditions: 3H-nitrendipine (0.05-0.50 nM), 90 minutes at 4° C. The protocol:
Assay for Inhibition of Nitrendipine Binding
Female, New Zealand white rabbits (1-2 kg) are sacrificed by cervical dislocation, and the heart is immediately removed, cleaned and chopped into small pieces. The tissue is homogenized in 5×times volume of 0.05M Hepes buffer, pH 7.4. The homogenate is centrifuged at 4000 g for 10 minutes, and the supernatant is re-centrifuged at 42,000×g for 90 minutes. The resulting membrane pellet is resuspended (0.7 ml/g weight) in 0.05M Hepes, pH 7.4 and stored at […] until used. Each tube of the binding assay contains ^3H-nitrendipine (0.05-0.50 nM), buffer, membranes (0.10 ml), and test compound in a total volume of 1.0 ml. After 90 minutes at 4° C., the bound nitrendipine is separated from the unbound by filtration on Whatman GF/C filters. After rinsing, the filters are dried and counted in a liquid scintillation counter.
Non-specific binding of ^3H-nitrendipine (that amount bound in the presence of excess unlabelled nitrendipine) is subtracted from the total bound to obtain specifically bound radiolabeled nitrendipine. The amount of specifically bound nitrendipine in the presence of a test compound is compared to that amount bound in the absence of a compound. A percent displacement (or inhibition) can then be calculated.
`COC(=O)C1=C(C)NC2=C(C1c1ccccc1Cl)S(=O)(=O)CCc1ccccc12` (centres unmarked) [Compound 1, [3]Benzothiepino[1,2-b]pyridine-3-carboxylic acid, 4-(2-chlorophenyl)-1,4,6,7-tetrahydro-2-methyl-, methyl ester, 5,5-dioxide]: the IC50 was found to be 612 nM.
In the case of `CC1=C(C(=O)OCCN(C)Cc2ccccc2)C(c2cccc(Cl)c2Cl)C2=C(N1)c1ccccc1CCS2(=O)=O` (centres unmarked) [Compound 2, [3]Benzothiepino[1,2-b]pyridine-3-carboxylic acid, 4-(2,3-dichlorophenyl)-1,4,6,7-tetrahydro-2-methyl-, 2-[methyl(phenylmethyl)amino]ethyl ester, 5,5-dioxide] it was 118 nM; in that of `COC(=O)C1=C(C)NC2=C(C1c1cccc(Cl)c1Cl)S(=O)(=O)CCc1ccccc12` (centres unmarked) [Compound 3, [3]Benzothiepino[1,2-b]pyridine-3-carboxylic acid, 4-(2,3-dichlorophenyl)-1,4,6,7-tetrahydro-2-methyl-, methyl ester, 5,5-dioxide], 38 nM.
In the case of `COC(=O)C1=C(C)NC2=C(C1c1c(F)c(F)c(F)c(F)c1F)S(=O)(=O)CCc1ccccc12` (centres unmarked) [Compound 4, [3]Benzothiepino[1,2-b]pyridine-3-carboxylic acid, 1,4,6,7-tetrahydro-2-methyl-4-(pentafluorophenyl)-, methyl ester, 5,5-dioxide] it was 261 nM.
The result for `COC(=O)C1=C(C)NC2=C(C1c1ccccc1[N+](=O)[O-])S(=O)(=O)CCc1ccccc12` (centres unmarked) [Compound 5, [3]Benzothiepino[1,2-b]pyridine-3-carboxylic acid, 1,4,6,7-tetrahydro-2-methyl-4-(2-nitrophenyl)-, methyl ester, 5,5-dioxide] reads 1900 nM; that for `COC(=O)C1=C(C)NC2=C(C1c1cccc(Cl)c1)S(=O)(=O)CCc1ccccc12` (centres unmarked) [Compound 6, [3]Benzothiepino[1,2-b]pyridine-3-carboxylic acid, 4-(3-chlorophenyl)-1,4,6,7-tetrahydro-2-methyl-, methyl ester, 5,5-dioxide], 337 nM; that for `CC1=C(C(=O)OCCN(C)Cc2cccs2)C(c2cccc(Cl)c2Cl)C2=C(N1)c1ccccc1CCS2(=O)=O` (centres unmarked) [Compound 7, [3]Benzothiepino[1,2-b]pyridine-3-carboxylic acid, 4-(2,3-dichlorophenyl)-1,4,6,7-tetrahydro-2-methyl-, 2-[methyl(2-thienylmethyl)amino]ethyl ester, 5,5-dioxide], 38 nM.
`COC(=O)C1=C(C)NC2=C(C1c1cccc([N+](=O)[O-])c1)S(=O)(=O)CCc1ccccc12` (centres unmarked) [Compound 8, [3]Benzothiepino[1,2-b]pyridine-3-carboxylic acid, 1,4,6,7-tetrahydro-2-methyl-4-(3-nitrophenyl)-, methyl ester, 5,5-dioxide]: the IC50 stood at 261 nM.
The result for `COC(=O)C1=C(C)NC2=C(C1c1c(O)cccc1Cl)S(=O)(=O)CCc1ccccc12` (centres unmarked) [Compound 9, [3]Benzothiepino[1,2-b]pyridine-3-carboxylic acid, 4-(2-chloro-6-hydroxyphenyl)-1,4,6,7-tetrahydro-2-methyl-, methyl ester, 5,5-dioxide] reads 1300 nM; that for `CC1=C(C(=O)OCCN(C)Cc2cccs2)C(c2ccccc2Cl)C2=C(N1)c1ccccc1CCS2(=O)=O` (centres unmarked) [Compound 10, [3]Benzothiepino[1,2-b]pyridine-3-carboxylic acid, 4-(2-chlorophenyl)-1,4,6,7-tetrahydro-2-methyl-, 2-[methyl(2-thienylmethyl)amino]ethyl ester, 5,5-dioxide], 99 nM.
The result for `CC1=C(C(=O)OCCN(C)Cc2ccccc2)C(c2ccccc2Cl)C2=C(N1)c1ccccc1CCS2(=O)=O` (centres unmarked) [Compound 11, [3]Benzothiepino[1,2-b]pyridine-3-carboxylic acid, 4-(2-chlorophenyl)-1,4,6,7-tetrahydro-2-methyl-, 2-[methyl(phenylmethyl)amino]ethyl ester, 5,5-dioxide] reads 453 nM.
